Laboratory results as given in patent US20060281807A1, “Quassinoid compositions for the treatment of cancer and other proliferative diseases” (Tapestry Pharmaceuticals, Inc., priority 2005, published 2006).
In brackets after ≈: the same amount, converted by molar mass. Several values for one entry are separate records, joined by “and”; a condition that tells them apart may be missing. Identical values can stand only once. Like-named read-outs stand apart in the source and are kept apart here.

Experiments:
[1] = system: HCT-116 cells; assay: HCT-116 cytotoxicity, viable cell count by trypan blue; format: cell-based, human
[2] = Maximum tolerated dose in mice; details: first stage, one mouse per dose
Experimental: Formulations containing 15-O-(3′-hydroxy-3′-isopropyl-4′-methylpentanoyl)bruceolide, 15-(3-isopropyl-4-methyl-2-pentenoyl)-bruceolide, and, for comparative purposes, bruceantin, or peninsularinone were prepared by solubilizing each compound in up to 100 mg/mL of ethanol. These solutions were diluted 1:1 with a stabilizer (Cremophor/propylene glycol). The solutions were then diluted in saline (1:10 minimum).
The maximum tolerated dose (MTD) was determined by a two-stage experiment. In the first stage, between 1 and 10 mg/mL of the formulation was prepared as described above. Next, 0.25 mL of the formulation was injected intravenously into one 20 gram mouse (0.75 mg/mouse). If the animal died within 30 days of injection, a series of subsequent 2-fold dilutions were administered to individual mice until an MTD was defined. […] The second stage of the study involved increasing the number of mice per dose to four, and retesting four dilutions that bracket the MTD from the individual mouse study. The four dilutions were the MTD, a dosage twice the MTD, a dosage ½ the MTD, and a dosage ¼ the MTD.

[3] = system: HCT116 (human colorectal carcinoma); assay: Disk diffusion assay, zone of inhibition, HCT116; format: cell-based; details: 1 mg/mL
Experimental: (§1) A disk diffusion assay was performed to define the differential cell killing ability of 15-O-(3′-hydroxy-3′-isopropyl-4′-methylpentanoyl)bruceolide. Seven cell types were assayed: L1210 (ATCC CCL-219) (murine leukemia), CCRF-CEM (ATCC CCL-119) (human leukemia), Colon 38 (murine colon adenocarcinoma), HCT116 (ATCC CCL-247) (human colorectal carcinoma), H125 (human lung carcinoma). The murine and human granulocyte/macrophage progenitor cell line (CFU-GM), served as controls.
(§2) Colon 38 cells (about 1 gram) were cut into small fragments in 15 mL of Hank's Balanced Salt Solution (HBSS) over a 100-mesh sieve and gently forced through by the scissors with HBSS constantly perfusing the sieve. The resulting material was then drawn into and out of a 5 mL syringe without a needle to further disperse the cell clumps. The cell solution was diluted and plated in 0.3% agarose in DMEM plus 10% heat-inactivated Bovine Calf Serum (BCS). For plating of all of the cell types (except controls), the 60 mm plates were first prepared with a hard agar bottom layer (0.6% agar in RPMI-1640 plus 15% BCS).
(§3) HCT116 and H125 cells were maintained in cell culture, and were removed from culture by a trypsin-collagenase-DNAase cocktail. The plating efficiencies of each cell type was sufficiently high that 30,000 cells in 3 mL produced the desired number of colonies (i.e., over 10,000 per plate) in 60 mm plates. This soft agar top layer (0.3% with the serum and media as above) plus the titrated tumor cells were poured into the plates and allowed to solidify.
(§4) A 15 μl sample of each compound was dropped onto a 6.5 mm disk (Baxter filter disks). The disks were allowed to dry overnight and then placed close to the edge of a petri dish. Depending upon the cell type, the dishes were incubated for 7 to 10 days, and examined by an inverted stereo-microscope (10×) for measurement of the zone of inhibition. The zone of inhibition was measured from the edge of the filter disk to the beginning of normal-sized colony formation. The diameter of the filter disk, 6.5 mm, was arbitrarily taken as a zone of 200 units. Compounds that were selective for killing solid tumors, as compared to leukemia or normal cells (“solid tumor selective”) were defined as those compounds which produced a difference in zones between solid tumor cells and either normal or leukemia cells of at least 250 units. The results of this analysis are set forth in Table 4, which illustrates the relative diameters of the zones of inhibition by various drugs on the growth of the respective cell types at various drug dilutions.

[4] = system: H125 (human lung carcinoma); assay: Disk diffusion assay, zone of inhibition, H125; format: cell-based; details: 1 mg/mL
Experimental: as §1, §2, §3, §4

[5] = system: CCRF-CEM (human leukemia); assay: Disk diffusion assay, zone of inhibition, CCRF-CEM; format: cell-based; details: 1 mg/mL, dilution 1/100
Experimental: as §1, §2, §4

[6] = system: Colon 38 (murine colon adenocarcinoma); assay: Disk diffusion assay, zone of inhibition, Colon 38; zone differentials, potency and product; format: cell-based; parameters: key to C38ΔL1210 / C38ΔCFU: difference of zone of inhibition values, in zone units; details: for zone of inhibition, Colon 38: 1 mg/mL
In short: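 Dissociated Colon 38 cells were plated in soft agar over a hard agar layer; 15 µl of compound dilution dried on a 6.5 mm disk was placed on the plate, and incubation ran 7–10 days. Inhibition zone was measured from disk edge to normal colonies, with the disk diameter = 200 units. Potency = dilution giving 500 units; the product multiplies it by the differentials against L1210 or CFU-GM.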

[7] = system: HCT-116 cells; assay: Clonogenic assay, HCT-116; format: cell-based, human; details: colonies at 7 days
Experimental: A clonogenic assay was performed using HCT-116 cells. Specifically, HCT-116 cells were seeded at 200 to 20,000 cells in 60 mm dishes. […] At either 2 hours or 24 hours following drug administration, the drug-containing media was removed, and fresh media without drug was added. In addition, one group of cells was subjected to continuous drug exposure for the entire incubation period. The dishes were incubated for 7 days (at 37° C. and 5% CO2), media was removed, and the colonies were stained with methylene blue. Colonies containing 50 cells or more were counted. The results were normalized to an untreated control. Plating efficiency for the untreated cells was about 90%. Repeat experiments also were carried out to define the cell survival range between 1 (100%) and 10^−3 (0.1%) survival. A survival rate of 10^−1 was chosen as the minimal level that would be required in vivo to achieve therapeutic efficacy against HCT-116 cells in tumor-bearing mice. The clonogenic dose response to 15-O-(3′-hydroxy-3′-isopropyl-4′-methylpentanoyl)bruceolide is illustrated in FIG. 4. The clonogenic dose response to 15-(3-isopropyl-4-methyl-2-pentenoyl)-bruceolide is illustrated in FIG. 5.

[8] = system: murine CFU-GM; assay: Disk diffusion assay, zone of inhibition, murine CFU-GM; format: cell-based; details: 1 mg/mL
Experimental: as §1
(§5) For CFU-GM cells, the femoral marrow of BD2F1 mice was flushed with MEM alpha (2 mL per femur). The cells were passed through an 18 gauge needle twice and the monodispersed suspension was counted. A total of 1.5×10^6 cells were plated in 3 mL of 0.3% agar with the addition of 10% L cell conditioned media, which provided colony stimulating factor, in MEM-alpha plus 10% BCS. For human CFU-GM, the cells were obtained from Poietic Technologies, Inc. (Gaithersburg, Md.) and washed twice with PBS before being titered and added to the agar mixture. The same cell number, culture conditions, and conditioning factors used with respect to the murine CFU-GM cells were used with the human cells, except that the cultures were assessed after 10 days of incubation.
as §4

[9] = system: human CFU-GM; format: cell-based; details: 1 mg/mL
Experimental: as §1, §5, §4

[10] = system: L1210 (murine leukemia); assay: Disk diffusion assay, zone of inhibition, L1210; format: cell-based; details: 1 mg/mL
Experimental: as §1, §2, §4

[11] = no dilution, 15 μl on disk, 6.5 mm = 200 units

COC(=O)[C@@]12OC[C@]34[C@H]([C@@H](O)[C@@H]1O)[C@@]1(C)CC(=O)C(O)=C(C)[C@@H]1C[C@H]3OC(=O)[C@H](OC(=O)/C=C(\C)C(C)C)[C@@H]24 [Bruceantin, bruceantin]
IC90/IC50 ([1]; HCT-116): 6,700
IC50 ([1]; Homo sapiens, 72 h, HCT-116, 3 days with compound, viable cells, by interpolation, read-out: IC50): 0.0015 µg/mL (≈ 0.00273 µM)
IC90 ([1]; Homo sapiens, 72 h, HCT-116, 3 days with compound, viable cells, by interpolation, read-out: IC90): 10 µg/mL (≈ 18.2 µM)
maximum tolerated dose, Dose - 1 Mouse ([2]; intravenous): 0.1 mg/mouse
MTD ([2]; mouse, in vivo, iv, maximum tolerated dose, Dose - 1 Mouse): 5.4 mg/kg
zone of inhibition, H-116 ([3]; dilution 1/10): 1000 units
zone of inhibition, H-116 ([3]; dilution 1/100): 400 units
zone of inhibition, H-116 ([3]; dilution 1/1000): 0 units
zone of inhibition, H-116 [3, 11]: >1000 units
zone of inhibition, H-125 M ([4]; dilution 1/10): >1000 units
zone of inhibition, H-125 M ([4]; dilution 1/100): 600 units
zone of inhibition, H-125 M ([4]; dilution 1/1000): 100 units
zone of inhibition, H-125 M [4, 11]: >1000 units
zone of inhibition, CEM [5]: 450 units
zone of inhibition, Colon 38 ([6]; dilution 1/10): >1000 units
zone of inhibition, Colon 38 ([6]; dilution 1/100): 600 units and 1000 units
zone of inhibition, Colon 38 ([6]; dilution 1/1000): 600 units and 450 units
zone of inhibition, Colon 38 [6, 11]: >1000 units
Sum ([6]; C38ΔL1210 plus C38ΔCFU): 1050
C38ΔL1210 ([6]; difference between zone of inhibition values, Colon38 vs L1210 leukemia): 500
C38ΔCFU ([6]; difference between zone of inhibition values, Colon38 vs normal cell CFU-GM): 550
Product ([6]; potency multiplied by zone differentials): 6300
Concentration Required for 10^−1 Survival Fraction ([7]; HCT-116, 2 Hour Exposure): >10 μg/mL
Concentration Required for 10^−1 Survival Fraction ([7]; HCT-116, 24 Hour Exposure): >10 μg/mL
Concentration Required for 10^−1 Survival Fraction ([7]; HCT-116, Continuous Exposure): 2 × 10^−3 μg/mL
zone of inhibition, murine CFU-GM ([8]; dilution 1/10): 550 units
zone of inhibition, murine CFU-GM ([8]; dilution 1/100): 150 units and 200 units
zone of inhibition, murine CFU-GM ([8]; dilution 1/1000): 0 units
zone of inhibition, human CFU-GM ([9]; dilution 1/10): >1000 units
zone of inhibition, human CFU-GM ([9]; dilution 1/100): 650 units
zone of inhibition, L1210 ([10]; dilution 1/10): 1000 units
zone of inhibition, L1210 [10, 11]: >1000 units
